The results in this text go back to the NIST ThermoML archive (doi:10.1016/j.jct.2013.09.030).

± gives the expanded uncertainty stated by the source.

A short description of this data set: cn = amount concentration of the nth substance listed, in mol/dm3. The following applies: 303.15 K; 101 kPa; Liquid; 4510 conductivity meter (Jenway, UK); c1 = 0.0005258.

For `CC1=C(C(=O)O)N2C(=O)[C@@H](NC(=O)[C@H](N)C3=CCC=CC3)[C@H]2SC1` [Cefradin] + O, the electrical conductivity worked out at 0.000611 ± 0.0002 S/m.
